Reference: patent publication US5030629A, “Compositions and method comprising heterocyclic compounds containing two heteroatoms as membrane penetration enhancers” (priority 1989, dated 1991)
Like-named read-outs stand apart in the source and are kept apart here. Blank lines part the entries; values can stand above or below the compound they belong to.

Key:
[1] = Penetration of hydrocortisone through hairless mouse skin in diffusion cells; format: in vitro ADME, hairless mice; settings: for % Penetration (hydrocortisone): 1% hydrocortisone, 2% 1,2-propanediol, 2% enhancer, average for two cells; for penetration enhancing properties as compared to the control (hydrocortisone): in words
Method: The compounds of Examples 8 and 13 were tested as penetration enhancing agents according to the procedure below:
(§1) The skin was incubated at 37° C. and the ambient humidity.
(§2) 100 microliters of the solution containing 1 mg of test drug was applied to the epidermal surface within the donor compartment. The entire contents from the 4.2 ml receptor compartment bathing the corium were removed for analysis at 5 or 6, 12 and 24 hours intervals. In each case, the receptor compartment was refilled with 4.2 ml of fresh normal saline.
(§3) The aliquots removed after 5 or 6, 12 and 24 hours were analyzed by HPLC using a C-18 reverse phase column.

[2] = patch, 5% ES, control without enhancer; receptor ethanol/saline (3:7)
Method: The compounds of the present invention were tested in vitro as penetration enhancers according to the procedure outlined below. The penetration enhancers were formulated with pharmacologically active agents in creams and patches.
Human stratum corneum was isolated from full thickness human skin as described by Bronaugh et. al., J. Pharm. […] The skin was placed between the donor and the receptor compartments of diffusion cells in such a way that the dermal side of the skin faced the receptor compartment which was filled with normal saline (pH 7.2-7.4) or appropriate releasing media. The stratum corneum was equilibrated at 37° C. overnight prior to the application of a topical formulation or a transdermal patch. All formulations were studied in triplicate.
(§4) The entire contents of the receptor compartment were removed at specific time intervals for duration of the study period and replenished with fresh saline.
Procedure of Example 39 was repeated with the following 17B-Estradiol (ES) patch formulations. Normal saline in the receptor compartment was replaced by ethanol/saline (3:7).

[3] = format: in vitro ADME, human
Method: Sci. 75, 1094 (1986). […] All formulations were studied in triplicate.
Example 39 was repeated with 1% Diclofenac gel, with and without compound of Example 21, was evaluated. The aliquots were analyzed by U.V. Spectrophotometry and average cumulative amount of drug permeating over 24 hours was calculated.

[4] = Examples 51-62 repeated with other penetration enhancers; comparison as penetration enhancing agents; settings: in words
Hygroscopicity = format: physicochemical
Method: 34 g (127 mmoles) 1-(2-Hyrdoxyethyl)-2-undecyl-2-imidazoline was dissolved in 300 ml of hexane and 8.5 g […] of acetic acid in 50 ml of hexane were reacted. The precipitate was filtered and then dried at 40°-50° C. under high vacuum for 5 hours. Yield 40.7 g (97.8%).

[5] = Penetration of 5-fluorouracil through hairless mouse skin in diffusion cells; format: in vitro ADME, hairless mice; settings: for % Penetration (5-Fluorouracil): 1% 5-Fluorouracil, 2% enhancer
Method: as §1, §2, §3
The compounds of Examples 8 was tested as penetration enhancers according to the procedure outlined under Example 49.

[6] = patch, 3% PG, control without enhancer, receptor ethanol/saline (3:7)
Method: The skin was placed between the donor and the receptor compartments of diffusion cells in such a way that the dermal side of the skin faced the receptor compartment which was filled with normal saline (pH 7.2-7.4) or appropriate releasing media. The stratum corneum was equilibrated at 37° C. overnight prior to the application of a topical formulation or a transdermal patch. All formulations were studied in triplicate.
as §4
Procedure of Example 39 was repeated with the following two sets of Progesterone (PG) patch formulations. Normal saline in the receptor compartment was replaced with ethanol/saline (3:7).

% Penetration (hydrocortisone) ([1]; 6 hrs): 8.8%
% Penetration (hydrocortisone) ([1]; 12 hrs): 17.3%
% Penetration (hydrocortisone) ([1]; 24 hrs): 34.9%
SMILES: CCCCCCCCCCCC1=NC(C)(CO)CO1 (centres unmarked) [Example 13, 4-hydroxymethyl-4-methyl-2-undecyl-2-oxazoline]
penetration enhancing properties as compared to the control (hydrocortisone) [1]: far superior penetration enhancing properties

Average Cumulative Amount of ES in Micrograms Permeating over 51 Hours [2]: 30.90 ± 1.00 Micrograms
SMILES: C[C@]12CC[C@@H]3c4ccc(O)cc4CC[C@H]3[C@@H]1CC[C@@H]2O [ES, 17B-Estradiol]

permeation of Diclofenac through human skin compared to control [3]: increases the permeation
SMILES: CCCCCCCCCCC1COC(C(F)(F)F)=N1 (centres unmarked) [Example 21, 4-Decyl-2-trifluoromethyl-2-oxazoline]
penetration enhancing, compared with the prior art and the other examples [4]: significantly superior penetration enhancing agents

hygroscopicity (hydroscopic [sic]) (Hygroscopicity): hydroscopic
SMILES: CCCCCCCCCCCC1=NCCN1CCO [Example 37, 1-(2-Hyrdoxyethyl)-2-undecyl-2-imidazoline acetate]
behaviour upon absorbing moisture (Hygroscopicity): hydrated to a gel upon absorbing moisture

% Penetration (hydrocortisone) ([1]; 6 hrs): 16.1%
% Penetration (hydrocortisone) ([1]; 12 hrs): 28.2%
% Penetration (hydrocortisone) ([1]; 24 hrs): 49.1%
% Penetration (5-Fluorouracil) ([5]; 6 hrs): 59.2%
% Penetration (5-Fluorouracil) ([5]; 12 hrs): 60.3%
% Penetration (5-Fluorouracil) ([5]; 24 hrs): 60.5%
penetration enhancement compared to the control (5-Fluorouracil) ([5]; in words): superior to the control
SMILES: CCCCCCCCCCCC1=NC(C)(C)CO1 [Example 8, 4,4-dimethyl-2-undecyl-2-oxazoline]
penetration enhancing properties as compared to the control (hydrocortisone) [1]: far superior penetration enhancing properties

Average Cumulative Amount of Diclofenac in Micrograms permeating over 24 hours [3]: 106.7 ± 33.5 Micrograms
SMILES: O=C(O)Cc1ccccc1Nc1c(Cl)cccc1Cl [Diclofenac, reference compound]

Average Cumulative Amount of PG in Micrograms Permeating over 51 Hours ([6]; SET A): 176.3 ± 92.0 Micrograms
Average Cumulative Amount of PG in Micrograms Permeating over 51 Hours ([6]; SET B): 25 ± 17 Micrograms
SMILES: CC(=O)[C@H]1CC[C@H]2[C@@H]3CCC4=CC(=O)CC[C@]4(C)[C@H]3CC[C@]12C [PG, Progesterone]
